In ChEMBL document CHEMBL1121801, “Salicylamide derivatives related to medroxalol with alpha- and beta-adrenergic antagonist and antihypertension activity” (J Med Chem, 1981):

Key:
Adrenergic receptor beta = Adrenergic receptor beta (Homo sapiens, UniProt P08588+P07550+P13945); assay: In vitro blocking activity against beta adrenergic receptor, isolated from guinea pig atria; format: protein assay
[1] = target: T1, Adrenergic receptor alpha-1 (Homo sapiens, UniProt P35348+P25100+P35368); assay: In vitro blocking activity against alpha adrenergic receptor, isolated from rabbit aortic strip; format: protein assay, Oryctolagus cuniculus
T1 sequence (P35348 whole entry): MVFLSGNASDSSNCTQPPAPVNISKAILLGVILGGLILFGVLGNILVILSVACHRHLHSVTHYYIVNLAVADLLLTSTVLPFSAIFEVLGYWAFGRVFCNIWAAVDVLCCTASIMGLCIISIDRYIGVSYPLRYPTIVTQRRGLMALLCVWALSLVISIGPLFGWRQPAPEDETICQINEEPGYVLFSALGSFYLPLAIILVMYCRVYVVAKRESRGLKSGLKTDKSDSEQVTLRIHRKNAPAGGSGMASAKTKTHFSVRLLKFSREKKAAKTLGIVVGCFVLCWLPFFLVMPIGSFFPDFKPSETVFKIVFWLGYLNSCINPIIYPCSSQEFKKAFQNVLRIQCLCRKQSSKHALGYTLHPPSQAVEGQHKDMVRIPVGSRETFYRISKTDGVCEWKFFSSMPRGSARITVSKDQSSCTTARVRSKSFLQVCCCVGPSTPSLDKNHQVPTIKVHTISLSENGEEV
T1 sequence (P25100 whole entry): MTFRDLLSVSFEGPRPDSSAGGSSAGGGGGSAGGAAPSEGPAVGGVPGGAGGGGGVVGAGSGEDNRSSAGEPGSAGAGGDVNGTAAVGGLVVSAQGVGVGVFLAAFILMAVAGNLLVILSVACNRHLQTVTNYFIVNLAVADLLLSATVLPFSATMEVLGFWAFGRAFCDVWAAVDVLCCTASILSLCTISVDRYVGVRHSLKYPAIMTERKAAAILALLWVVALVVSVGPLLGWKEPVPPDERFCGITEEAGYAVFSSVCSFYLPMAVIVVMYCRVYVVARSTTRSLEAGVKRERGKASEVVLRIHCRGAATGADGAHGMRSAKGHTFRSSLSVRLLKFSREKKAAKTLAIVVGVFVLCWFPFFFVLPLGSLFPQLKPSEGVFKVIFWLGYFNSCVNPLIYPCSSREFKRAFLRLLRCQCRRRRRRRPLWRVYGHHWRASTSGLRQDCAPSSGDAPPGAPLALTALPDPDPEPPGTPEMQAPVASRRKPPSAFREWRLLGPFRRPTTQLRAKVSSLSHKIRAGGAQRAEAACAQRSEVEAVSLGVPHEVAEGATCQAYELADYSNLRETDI
T1 sequence (P35368 whole entry): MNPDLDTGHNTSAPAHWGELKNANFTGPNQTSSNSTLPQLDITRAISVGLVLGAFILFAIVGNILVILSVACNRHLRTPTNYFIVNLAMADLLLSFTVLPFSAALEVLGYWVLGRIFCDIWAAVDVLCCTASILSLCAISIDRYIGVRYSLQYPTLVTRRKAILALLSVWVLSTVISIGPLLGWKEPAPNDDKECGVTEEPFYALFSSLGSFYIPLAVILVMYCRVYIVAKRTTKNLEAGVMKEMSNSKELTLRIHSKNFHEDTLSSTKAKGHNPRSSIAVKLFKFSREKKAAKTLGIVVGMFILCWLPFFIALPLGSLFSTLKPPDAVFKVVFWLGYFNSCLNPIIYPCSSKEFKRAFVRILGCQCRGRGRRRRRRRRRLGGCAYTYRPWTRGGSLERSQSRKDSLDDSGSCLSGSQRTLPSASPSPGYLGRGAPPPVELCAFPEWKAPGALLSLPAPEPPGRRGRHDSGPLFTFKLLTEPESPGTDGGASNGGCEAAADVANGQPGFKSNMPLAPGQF

Rattus norvegicus [2] = assay: Antihypertensive activity in spontaneously hypertensive rats(SHR) at 50 mg/kg peroral dose after 4 h, expressed as decrease in systolic blood pressure; format: functional, Artery; details: route oral
Rattus norvegicus [3] = assay: Antihypertensive activity in spontaneously hypertensive rats(SHR) at 50 mg/kg peroral dose after 1 h, expressed as decrease in systolic blood pressure; format: functional, Artery; details: route oral
Cavia porcellus = species on record: Cavia porcellus; assay: spasmolytic activity in isolated guinea pig ileum preparation;- log KB; (Bacl2); format: functional, organism-based; details: read-out: pA2 (converted)
Oryctolagus cuniculus = species on record: Oryctolagus cuniculus; assay: Ratio of pA2 for beta-adrenergic receptor to that of alpha-adrenergic receptor
[4] = target: Beta-1 adrenergic receptor (Homo sapiens) (UniProt P08588); details: Canis lupus familiaris;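 further: anesthetized dogs dosed intravenously, sympatholytic action measured as inhibition of the chronotropic response to isoproterenol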
Description: In vivo sympatholytic activity (isoproterenol-induced chronotropy) at beta 1-adrenergic receptor in anesthetized dog, iv

[5] = target: Beta-2 adrenergic receptor (Canis lupus familiaris) (UniProt P54833);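 further: Beta-2 blockade of isoproterenol-induced vasodepression in anesthetized dogs, given intravenously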
Description: In vivo sympatholytic activity (isoproterenol-induced vasodepression) at beta 2-adrenergic receptor in anesthetized dog, iv

[6] = target: Adrenergic receptor alpha (Homo sapiens) (UniProt P35348+P08913+P18825+P25100+P35368+P18089); details: Canis lupus familiaris
Description: In vivo sympatholytic activity (phenylephrine-induced vasopressor response) at alpha-adrenergic receptor in anesthetized dog, iv

Chain of Beta-2 adrenergic receptor (Canis lupus familiaris) (P54833 whole entry, looked up): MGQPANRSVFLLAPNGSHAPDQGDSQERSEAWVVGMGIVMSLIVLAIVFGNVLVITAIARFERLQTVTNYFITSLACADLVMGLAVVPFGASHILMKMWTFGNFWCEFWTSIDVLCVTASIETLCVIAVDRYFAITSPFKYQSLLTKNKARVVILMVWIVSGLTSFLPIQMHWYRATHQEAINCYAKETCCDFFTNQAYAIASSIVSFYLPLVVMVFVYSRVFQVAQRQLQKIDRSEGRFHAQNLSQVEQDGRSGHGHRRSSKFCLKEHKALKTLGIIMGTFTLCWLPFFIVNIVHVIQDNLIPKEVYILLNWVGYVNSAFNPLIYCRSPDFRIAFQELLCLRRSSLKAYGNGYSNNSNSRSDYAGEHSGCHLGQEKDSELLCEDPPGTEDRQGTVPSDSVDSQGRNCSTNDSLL
Chain of Beta-1 adrenergic receptor (Homo sapiens) (P08588 whole entry, looked up): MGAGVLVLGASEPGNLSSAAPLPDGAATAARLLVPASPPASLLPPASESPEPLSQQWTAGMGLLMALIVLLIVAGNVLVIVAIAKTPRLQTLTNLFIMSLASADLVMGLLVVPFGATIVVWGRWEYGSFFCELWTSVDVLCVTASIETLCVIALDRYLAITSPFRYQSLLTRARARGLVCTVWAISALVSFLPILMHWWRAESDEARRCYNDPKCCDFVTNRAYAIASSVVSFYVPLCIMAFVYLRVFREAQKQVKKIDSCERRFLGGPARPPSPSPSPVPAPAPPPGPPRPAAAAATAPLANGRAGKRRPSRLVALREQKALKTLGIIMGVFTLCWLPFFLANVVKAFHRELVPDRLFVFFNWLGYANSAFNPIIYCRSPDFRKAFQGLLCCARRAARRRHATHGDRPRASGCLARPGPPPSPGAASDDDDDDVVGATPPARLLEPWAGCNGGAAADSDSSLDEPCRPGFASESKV

| pA2 (Adrenergic receptor beta) | pA2 [1] | Ratio (Oryctolagus cuniculus) | DR10 [4] [mg/kg] | DR10 [5] [mg/kg] | DR10 [6] [mg/kg] | Structure (SMILES) | BP decrease (Rattus norvegicus [2]) [mmHg] | BP decrease (Rattus norvegicus [3]) [mmHg] | Kb (Cavia porcellus) [µM] |
| --- | --- | --- | --- | --- | --- | --- | --- | --- | --- |
| < 5 | < 5 |  |  |  |  | COC(=O)c1cc(C(O)CN2CCN(C(=O)c3ccco3)CC2)ccc1O.Cl (stereo not given) | 15 | 37 | 17.4 |
| 6.36 | 5.86 | 3.2 | 11.8 | 16.8 | 3.22 | CCNC(=O)c1cc(C(O)CNC(C)CCc2ccc3c(c2)OCO3)ccc1O.Cl (stereo not given) | 108 | 95 | 1.74 |
|  | 7.95 |  |  |  |  | CNC(=O)c1cc(C(O)CN2CCN(c3ccccc3OC)CC2)ccc1O.Cl (stereo not given) | 52 | 44 | 9.55 |
| 6.79 | 7.45 | 0.2 |  |  |  | COC(=O)c1cc(C(O)CN2CCN(c3ccccc3C)CC2)ccc1O.Cl (stereo not given) | 6 | 5 | 0.871 |
| 5.07 | 5.13 | 0.9 |  |  |  | Cl.NC(=O)c1cc(C(O)CN2CCN(Cc3ccccc3)CC2)ccc1O (stereo not given) | 40 | 35 | > 74.1 |
| 5.37 | 6.08 | 0.2 |  |  |  | Cl.NC(=O)c1cc(C(O)CN2CCN(c3ccccn3)CC2)ccc1O (stereo not given) | 13 | 16 | 126 |
| < 5 | 6.54 |  |  |  |  | COc1ccc(C(O)CN2CCN(c3ccccc3)CC2)cc1C(N)=O.Cl (stereo not given) | 25 | 38 | 64.6 |
| 5.92 | 6.21 | 0.5 |  |  |  | COC(=O)c1cc(C(O)CNCC2COc3ccccc3O2)ccc1O.Cl (stereo not given) | 31 | 46 | 4.07 |
| 6.55 | < 5 |  |  |  |  | COC(=O)c1cc(C(O)CNC(C)(C)CCc2ccc3c(c2)OCO3)ccc1O.Cl (stereo not given) | 39 | 41 | 2.63 |
| 5.84 | 6.13 | 0.5 |  |  |  | COc1ccc(N2CCN(CC(O)c3ccc(O)c(C(N)=O)c3)CC2)cc1.Cl.Cl (stereo not given) | 7 | 10 | > 52.5 |
| 5.41 | 6.8 | 0.04 |  |  |  | COc1ccc(C(O)CN2CCN(c3ccccc3OC)CC2)cc1C(N)=O.Cl (stereo not given) | 46 | 56 | 33.1 |
| 6.14 | 7.56 | 0.04 |  |  |  | Cc1ccccc1N1CCN(CC(O)c2ccc(O)c(C3N=NN=N3)c2)CC1 (stereo not given) | 47 | 48 | > 100 |
| 5.27 | 6.27 | 0.1 |  |  |  | CCOc1ccc(C(O)CN2CCN(c3ccccc3)CC2)cc1C(N)=O.Cl (stereo not given) | 19 | 22 | 21.4 |
| 6.44 | 7.42 | 0.1 |  |  |  | COc1ccccc1N1CCN(CC(O)c2ccc(O)c(C(N)=O)c2)CC1.Cl (stereo not given) | 35 | 45 | 13.5 |
| 8.1 | 5.56 | 372 |  |  |  | COC(=O)c1cc(C(O)CNC(C)CCc2ccc3c(c2)OCO3)ccc1OC.Cl (stereo not given) | 22 | 44 | 2.75 |
| 5.1 | 5.2 | 0.8 |  |  |  | CC(CCc1ccc2c(c1)OCO2)NCC(O)c1ccc(O)c(C(=O)O)c1.Cl (stereo not given) | 5 | 6 | > 100 |
|  |  |  |  |  |  | CC(C)NCC(O)COc1cccc2ccccc12.Cl (stereo not given) [PROPRANOLOL HYDROCHLORIDE] | 46 | 28 |  |
| 4.19 | 7.04 |  |  |  |  | Cl.NC(=O)c1cc(C(O)CN2CCN(c3ccccc3)CC2)ccc1O (stereo not given) | 9 | 7 |  |
| < 5 | < 5 |  |  |  |  | NC(=O)c1cc(C(O)CN2CCN(C(=O)c3ccco3)CC2)ccc1O (stereo not given) | 28 | 30 | > 100 |
| 7.15 | 5.31 | 69 | 2.1 | 0.76 |  | CC(C)(CCc1ccc2c(c1)OCO2)NCC(O)c1ccc(O)c(C(N)=O)c1.Cl (stereo not given) | 61 | 43 | 0.676 |
| 7.21 | 5.46 | 56 |  |  |  | CC(CCc1ccc2c(c1)OCO2)NCC(O)c1ccc(O)c(C(=O)N(C)C)c1.Cl (stereo not given) | 22 | 24 | 8.71 |
| 6.41 | 7 | 0.3 |  |  |  | COC(=O)c1cc(C(O)CN2CCN(c3ccccc3OC)CC2)ccc1OC.Cl (stereo not given) | 35 | 37 | 34.7 |
| 6.17 | 6.87 | 0.2 |  |  |  | NC(=O)c1cc(C(O)CN2CCN(c3ccc(Cl)cc3)CC2)ccc1O (stereo not given) | 56 | 49 | 26.3 |
| 6.9 | 6.33 | 3.7 |  |  |  | Cl.NC(=O)c1cc(C(O)CN2CCN(c3cccc(C(F)(F)F)c3)CC2)ccc1O (stereo not given) | 18 | 1 | 1.82 |
| 5.84 | 6.2 | 0.4 |  |  |  | NC(=O)c1cc(C(O)CNCC2COc3ccccc3O2)ccc1O (stereo not given) | 18 | 24 | 26.9 |
| 6.33 | 7.21 | 0.1 |  |  |  | Cc1ccccc1N1CCN(CC(O)c2ccc(O)c(C(=O)NCC(C)(C)C)c2)CC1.Cl (stereo not given) | 32 | 41 | 0.224 |
|  |  |  |  |  |  | CC(CCc1ccccc1)NC(C)C(O)c1ccc(O)cc1.Cl (stereo not given) [NYLIDRIN HYDROCHLORIDE] | 51 | 54 |  |
| 5.17 | 5.47 | 0.2 |  |  |  | CNC(=O)c1cc(C(O)CN2CCN(c3ccc(OC)cc3)CC2)ccc1O.Cl (stereo not given) | 14 | 20 | 15.1 |

| Structure (SMILES) | pA2 (Adrenergic receptor beta) | pA2 [1] | Ratio (Oryctolagus cuniculus) | DR10 [4] [mg/kg] | DR10 [5] [mg/kg] | DR10 [6] [mg/kg] | BP decrease (Rattus norvegicus [2]) [mmHg] | BP decrease (Rattus norvegicus [3]) [mmHg] | Kb (Cavia porcellus) [µM] |
| --- | --- | --- | --- | --- | --- | --- | --- | --- | --- |
| CCNC(=O)c1cc(C(O)CN2CCC(n3c(O)nc4ccccc43)CC2)ccc1O.Cl (stereo not given) | < 5.38 | 6.63 | < 0.06 |  |  |  | 51 | 22 | 6.92 |
| Cl.NC(=O)c1cc(C(O)CN2CCC(n3c(O)nc4ccccc43)CC2)ccc1O (stereo not given) | 5.45 | 6.7 | 0.06 |  |  |  | 15 | 6 | > 61.7 |
| COC(=O)c1cc(C(O)CN2CCC(n3c(O)nc4ccccc43)CC2)ccc1O.Cl (stereo not given) | 5.71 | 6.94 | 0.06 |  |  |  | 37 | 52 | 1.26 |
